Values after ≈ are worked out from the molar mass of the structure shown. Values joined by “and” are separate entries in the source; they are usually repeats but may differ in a detail not shown here. Equal entries are not always repeated. Non-standard residues stand in square brackets, D forms with d. Residues, ends and D or L forms follow the SMILES beside them. *: point of attachment. Octanoyl = CCCCCCCC(=O)*; Aib = CC(C)(N)C(=O)O
Legend:
[1] = system: blood agar plate (Columbia CNA Agar); assay: Hemolysis on blood agar plate; details: 35 ± 2 °C, 24 h; for Hemolysis (class): 50 μg peptide (2 μL of 25 mg/mL in DMSO) spotted on blood agar, visual, triplicate
Protocol: Hemolysis zones were visually determined and measured. […] For two additional peptides (6 and 15), only a small hemolysis zone (diameter 4–5 mm) was visible, as compared to that of the positive control (Triton X-100, 13 mm).
Briefly, 2 μL of each peptide solution in DMSO (25 mg/mL), corresponding to 50 μg, was spotted on the surface of a blood agar plate (Columbia CNA Agar, Becton Dickinson Italia S.p.A., Florence, Italy). The plate was then incubated at 35 ± 2 °C for 24 h and visually inspected for the presence of hemolysis zones (see Figure S13, Supplementary Material). The experiment was performed in triplicate. Table 2 reports the average value of the diameter of hemolysis zones measured in each individual experiment. Triton X-100 was used as a positive control (diameter of the hemolysis zone: 13 mm), while DMSO was used as a negative control.
Figure S13. Implementation of the hemolysis test as described in Bechlars et al.. After spotting
2 µL (50 µg) of each compound at a random location on the blood agar plate and incubation at 35 ±
2 °C for 24 h, the plates were manually inspected for the presence of hemolysis zones. Triton X-100
and DMSO were used as the positive and negative controls, respectively. Results were interpreted
(1 picture or pasted object on this page, not shown here)

[2] = system: Klebsiella pneumoniae ATCC 13833; details: MHB, 5 × 10^5 CFU/mL, 18 h, 35 °C, triplicate
Description: (§1) The antibacterial activity of the peptides was initially assessed on a panel of representative Gram-positive and Gram-negative organisms of high clinical relevance and commonly responsible for bacterial infections in both animals and humans. Bacillus subtilis ATCC 6633 (Bsu) was also included as a rod-shaped model Gram-positive organism. This first panel comprised: Enterococcus faecalis ATCC 29212 (Efa); Streptococcus pyogenes ATCC 12344 (Spy); and Staphylococcus aureus ATCC 25923 (Sau); Gram-negative: Escherichia coli CCUGT (Eco), Klebsiella pneumoniae ATCC 13833 (Kpn), Acinetobacter baumannii ATCC 17978 (Aba), and Pseudomonas aeruginosa ATCC 27853 (Pae) (Table 2). Both the minimum inhibitory concentration (MIC, Table 2) and the minimum bactericidal concentration (MBC, Table S1, Supporting Material) were determined.
(§2) The minimum inhibitory concentration (MIC) and the minimum bactericidal concentration (MBC) of the compounds were determined in triplicate using Mueller–Hinton broth (MHB). […] Therefore, we decided to dissolve all peptides in DMSO to a final concentration of 25 mg/mL, for consistency. The bacteria inoculum was 5 × 10^5 CFU/mL, as recommended by CLSI (Document M07-A10, 2015). […] Reference-type strains, including representatives of both Gram-positive bacteria (Bacillus subtilis ATCC 6633, Enterococcus faecalis ATCC 29212, Staphylococcus aureus ATCC 25923, the methicillin-resistant Staphylococcus aureus ATCC 43300 (MRSA), Streptococcus pyogenes ATCC 12344) and Gram-negative bacteria (Escherichia coli CCUGT, Klebsiella pneumoniae ATCC 13833, Pseudomonas aeruginosa ATCC 27853, and Acinetobacter baumannii ATCC 17978), were acquired from ATCC or CCUG culture collections. Other antibiotic-resistant clinical isolates were present in our collection at the University Teaching Hospital (Azienda Ospedaliero-Universitaria Senese ‘Santa Maria alle Scotte’) in Siena, Tuscany, Italy. Specifically, MDR carbapenem-hydrolyzing class D β-lactamase-producing Acinetobacter baumannii and metallo-β-lactamase-producing Pseudomonas aeruginosa were used in this study (Table 4).

[3] = system: Escherichia coli CCUGT; details: MHB, 5 × 10^5 CFU/mL, 18 h, 35 °C, triplicate
Description: as §1, §2

[4] = system: Streptococcus pyogenes ATCC 12344; details: MHB, 5 × 10^5 CFU/mL, 18 h, 35 °C, triplicate
Description: as §1, §2

[5] = system: Staphylococcus aureus ATCC 25923; details: MHB, 5 × 10^5 CFU/mL, 18 h, 35 °C, triplicate
Description: as §1, §2

[6] = system: Enterococcus faecalis ATCC 29212; details: MHB, 5 × 10^5 CFU/mL, 18 h, 35 °C, triplicate
Description: as §1, §2

[7] = system: Acinetobacter baumannii ATCC 17978; details: for MIC against A. baumannii, in molar units: corresponding to 2 and 8 μg/mL
Description: as §1, §2

[8] = system: Pseudomonas aeruginosa ATCC 27853; details: MHB, 5 × 10^5 CFU/mL, 18 h, 35 °C, triplicate
Description: as §1, §2

[9] = system: Bacillus subtilis ATCC 6633; details: MHB, 5 × 10^5 CFU/mL, 18 h, 35 °C, triplicate
Description: as §1, §2

[10] = system: P. aeruginosa 101/1477 (IMP-1); details: MHB, 5 × 10^5 CFU/mL, 18 h, 35 °C, triplicate
Protocol: as §2

[11] = system: S. aureus ATCC 43300 (MRSA); details: MHB, 5 × 10^5 CFU/mL, 18 h, 35 °C, triplicate
Protocol: as §2

[12] = system: A. baumannii SI-310 (OXA-24); details: colistin-resistant isolate; MHB, 5 × 10^5 CFU/mL, 18 h, 35 °C, triplicate
Protocol: as §2

[13] = system: P. aeruginosa VR-143/97 (VIM-1); details: MHB, 5 × 10^5 CFU/mL, 18 h, 35 °C, triplicate
Protocol: as §2

[14] = system: P. aeruginosa 506/99 (VIM-2); details: MHB, 5 × 10^5 CFU/mL, 18 h, 35 °C, triplicate
Protocol: as §2

[15] = system: A. baumannii SI-648 (OXA-23, OXA-51-like); details: MHB, 5 × 10^5 CFU/mL, 18 h, 35 °C, triplicate
Protocol: as §2

[16] = system: A. baumannii SI-12 (OXA-23); details: MHB, 5 × 10^5 CFU/mL, 18 h, 35 °C, triplicate
Protocol: as §2

[17] = system: P. aeruginosa VA-182/00 (VIM-2); details: MHB, 5 × 10^5 CFU/mL, 18 h, 35 °C, triplicate
Protocol: as §2

[18] = system: reference Gram-positive and Gram-negative strains; details: lowest value over the eight reference strains
Description: as §1, §2

[19] = MHB, 5 × 10^5 CFU/mL, 18 h, 35 °C, triplicate

SMILES: CCCCCCCC(=O)NC(C)(C)C(=O)NCC(=O)N[C@@H](CC(C)C)C(=O)NC(C)(C)C(=O)NCC(=O)N[C@@H](CCCCN)C(=O)N[C@@H](CC(C)C)C(=O)NC(C)(C)C(=O)NCC(=O)N[C@H](C(=O)N[C@H](CO)CC(C)C)[C@@H](C)CC [Peptide 10, 1-Oct-Aib-Gly-Leu-Aib-Gly-Lys-Leu-Aib-Gly-Ile-Lol]
- Hemolysis (class) [1]: +
- Hemolysis (d, diameter of hemolysis zone) ([1]; 50 μg spotted on blood agar, average of triplicate): 11 mm
- MBC Kpn [2]: 64 µg/mL (≈ 56.3 µM)
- MIC Kpn [2]: 16 µg/mL (≈ 14.1 µM)
- MBC Eco [3]: 128 µg/mL (≈ 113 µM)
- MIC Eco [3]: 64 µg/mL (≈ 56.3 µM)
- MBC Spy [4]: 16 µg/mL (≈ 14.1 µM)
- MIC Spy [4]: 4 µg/mL (≈ 3.52 µM)
- MBC Sau [5]: 16 µg/mL (≈ 14.1 µM)
- MIC Sau [5]: 8 µg/mL (≈ 7.03 µM)
- MBC Efa [6]: 16 µg/mL (≈ 14.1 µM)
- MIC Efa [6]: 4 µg/mL (≈ 3.52 µM)
- MBC Aba [7, 19]: > 128 µg/mL
- MIC against A. baumannii, in molar units [7]: 1.8 to 7.2 µM
- MBC Pae [8]: 128 µg/mL (≈ 113 µM)
- MBC Bsu [9]: 16 µg/mL (≈ 14.1 µM)
- MIC Bsu [9]: 4 µg/mL (≈ 3.52 µM)
- MIC P. aeruginosa 101/1477 (IMP-1) [10]: > 128 µg/mL
- MBC S. aureus ATCC 43300 (MRSA) [11]: 8 µg/mL (≈ 7.03 µM)
- MIC S. aureus ATCC 43300 (MRSA) [11]: 4 µg/mL (≈ 3.52 µM)
- MBC A. baumannii SI-310 (OXA-24) [12]: 16 µg/mL (≈ 14.1 µM)
- MIC A. baumannii SI-310 (OXA-24) [12]: 16 μg/mL and 16/16 μg/mL
- MIC P. aeruginosa VR-143/97 (VIM-1) [13]: > 128 µg/mL
- MIC P. aeruginosa 506/99 (VIM-2) [14]: > 128 µg/mL
- MBC A. baumannii SI-648 (OXA-23, OXA-51-like) [15]: 16 µg/mL (≈ 14.1 µM)
- MIC A. baumannii SI-648 (OXA-23, OXA-51-like) [15]: 16 μg/mL and 16/16 μg/mL
- MBC A. baumannii SI-12 (OXA-23) [16]: 32 µg/mL (≈ 28.1 µM)
- MIC A. baumannii SI-12 (OXA-23) [16]: 32 μg/mL and 32/32 μg/mL
- MIC P. aeruginosa VA-182/00 (VIM-2) [17]: > 128 µg/mL

SMILES: CCCCCCCC(=O)NC(C)(C)C(=O)N[C@@H](CCCCN)C(=O)N[C@@H](CC(C)C)C(=O)NC(C)(C)C(=O)N[C@@H](CCCCN)C(=O)N[C@@H](CCCCN)C(=O)N[C@@H](CC(C)C)C(=O)NC(C)(C)C(=O)NCC(=O)N[C@H](C(=O)N[C@@H](CC(C)C)C(N)=O)[C@@H](C)CC [Peptide 11, 1-Oct-Aib-Lys-Leu-Aib-Lys-Lys-Leu-Aib-Gly-Ile-Leu-NH2] (Octanoyl-[Aib]KL[Aib]KKL[Aib]GIL-NH2)
- Hemolysis (class) [1]: -
- MIC Kpn [2]: > 128 µg/mL
- lowest MIC [18]: 2 µg/mL
- MBC Eco [3]: 128 µg/mL (≈ 99 µM)
- MIC Eco [3]: 16 µg/mL (≈ 12.4 µM)
- MBC Spy [4]: 16 µg/mL (≈ 12.4 µM)
- MIC Spy [4]: 4 µg/mL (≈ 3.09 µM)
- MIC Sau [5]: 16 µg/mL (≈ 12.4 µM)
- MBC Efa [6]: 32 µg/mL (≈ 24.8 µM)
- MIC Efa [6]: 4 µg/mL (≈ 3.09 µM)
- MBC Aba [7, 19]: 2 µg/mL (≈ 1.55 µM)
- MIC Aba [7, 19]: 2 µg/mL (≈ 1.55 µM)
- MIC against A. baumannii, in molar units [7]: 1.8 to 7.2 µM
- MBC Bsu [9]: 16 µg/mL (≈ 12.4 µM)
- MIC Bsu [9]: 2 µg/mL (≈ 1.55 µM)
- MBC P. aeruginosa 101/1477 (IMP-1) [10]: 8 µg/mL (≈ 6.19 µM)
- MIC P. aeruginosa 101/1477 (IMP-1) [10]: 8 µg/mL (≈ 6.19 µM)
- MBC S. aureus ATCC 43300 (MRSA) [11]: 2 µg/mL (≈ 1.55 µM)
- MIC S. aureus ATCC 43300 (MRSA) [11]: 2 µg/mL (≈ 1.55 µM)
- MBC A. baumannii SI-310 (OXA-24) [12]: 4 µg/mL (≈ 3.09 µM)
- MIC A. baumannii SI-310 (OXA-24) [12]: 2 µg/mL (≈ 1.55 µM)
- MBC P. aeruginosa VR-143/97 (VIM-1) [13]: 8 µg/mL (≈ 6.19 µM)
- MIC P. aeruginosa VR-143/97 (VIM-1) [13]: 8 µg/mL (≈ 6.19 µM)
- MBC P. aeruginosa 506/99 (VIM-2) [14]: 16 µg/mL (≈ 12.4 µM)
- MIC P. aeruginosa 506/99 (VIM-2) [14]: 8 µg/mL (≈ 6.19 µM)
- MBC A. baumannii SI-648 (OXA-23, OXA-51-like) [15]: 4 µg/mL (≈ 3.09 µM)
- MIC A. baumannii SI-648 (OXA-23, OXA-51-like) [15]: 2 µg/mL (≈ 1.55 µM)
- MBC A. baumannii SI-12 (OXA-23) [16]: 32 µg/mL (≈ 24.8 µM)
- MIC A. baumannii SI-12 (OXA-23) [16]: 32 μg/mL and 32/32 μg/mL
- MBC P. aeruginosa VA-182/00 (VIM-2) [17]: 32 µg/mL (≈ 24.8 µM)
- MIC P. aeruginosa VA-182/00 (VIM-2) [17]: 8 µg/mL (≈ 6.19 µM)
